Tests used:
Format in all cases: cell-based, human
[1] = tested on: WA25 hESC and mND2-0 hiPSC aggregates; test: Keratinocyte (non-neural ectoderm) induction in hPSC aggregates in 3D culture; conditions: n=40 aggregates per cell line across 4 experiments
Protocol: We sought to develop a novel human non-neural induction protocol that could generate skin organoids. Human pluripotent stem cells of the WA25 cell line were dissociated in Essential 8 (E8) culture medium into single cells. Approximately 5000 cells were plated in each well of a 96-well V-bottom plate. Following 24 hours in culture, pluripotent cell aggregates that formed were transferred to 96-well U-bottom plates and cultured in a differentiation medium in the presence of Matrigel. This was considered “day 0” of differentiation (see FIG. 1). In comparing our mouse pluripotent stem cell (mPSC) system with our human (hPSC) system, it was observed that hPSCs appear to produce different endogenous signaling molecules that must be added as exogenous factors for mPSC cultures. Assays were performed to identify key factors dictating non-neural ectoderm induction in hPSC aggregates. It was determined that treating hPSC aggregates with the TGF signaling inhibitor SB-431542 in a chemically-defined medium with or without a low concentration of BMP4 (<5 ng/ml) (CDM; Table 1) produces a surface epithelium of TFAP2^+ (AP2) non-neural ectoderm cells (FIGS. 3A-3F). After a 10-12 day incubation, the aggregates were transferred to a floating culture on low-cell attachment plates in organoid maturation medium (OMM; see Table 2). […]

[2] = tested on: hPSC-derived skin organoids; test: Pigmentation of hair follicles in skin organoids; conditions: pre-treated during days 8-12
Protocol: After 4 days of incubation, 25 μl of CDM containing a 250 ng ml^−1 FGF-2 (50 ng/ml final concentration) and 1 μM LDN-193189 (200 nM final concentration) was added to the pre-existing 100 μl of media in each well. After an additional 4 days (8 days total), 250 of CDM was added to the media. For some experiments, CDM containing 18 μM CHIR99021 (3 μM final concentration; Stemgent) was added to the pre-existing 125 μl of media in each well. During day 12 transfer to OMM, aggregates were resuspended in ice cold undiluted GFR Matrigel and placed in approximately 25 μl droplets on the surface of a 100 mm bacterial culture plate. After at least 30 minutes of incubation at 37° C., the droplets were bathed in 10 ml of OMM. To avoid Matrigel droplet induction, the aggregates can be washed and plated individually into each well of a 24-well low cell adhesion plate in OMM containing 1% GFR Matrigel. After 18 days of differentiation, the CHIR was removed from the medium by washing and the droplet aggregates were moved to a floating culture. Droplets were carefully dislodged using a wide-mouth 1000P tip and transferred to 75 ml of fresh OMM in a 125 ml disposable spinner flask (Corning). Spinner flasks were maintained on an in-incubator stir plate (Thermo Scientific) at 65 RPM for up to 180 days of differentiation. […]

hPSC-derived aggregates [3] = test: Structures formed under treatment plans during days 0-12 of differentiation; conditions: treatment after initial 10 μM SB+4 ng/ml FGF; with or without insulin
Excerpt: A-b, Treatment conditions during days 0-12 were: no treatment (NT), LDN (from d4-d12), LDN/FGF (from d4-d12), and LDN/FGF (from d4-d12)+CHIR (from d8-d12). From days 22-55, skin organoids formed in LDN/FGF and LDN/FGF/CHIR conditions with or without insulin. […] We detached the droplet embedded aggregates from the plate and placed them in a rotating or shaking floating culture in OMM for up to 60 days. By 30-55 days of culture, skin organoids consisted of KRT5^+ basal keratinocytes and PDGFRa^+ dermal fibroblasts (FIGS. 7A-7C). The skin organoids developed as a cyst with an inner layer of epidermis and an outer layer of dermis. We next wondered what mechanism controlled the induction of skin organoids and tested various treatment plans with or without insulin in the CDM during days 0-12 of differentiation (FIGS. 8A-8B). After 12 days, the aggregates were transferred to Matrigel in OMM as previously mentioned. […] Intriguingly, without insulin, the skin organoids were 2.5-3.5 times larger on average than insulin treated aggregates. We chose to continue our analysis with FGF/LDN and FGF/LDN/CHIR (without insulin) treated aggregates.

[4] = tested on: hPSC-derived skin organoids; test: Skin organoid size with or without insulin in the differentiation medium; conditions: LDN/FGF and LDN/FGF/CHIR conditions; n=6 organoids/condition
Excerpt: A-b, Treatment conditions during days 0-12 were: no treatment (NT), LDN (from d4-d12), LDN/FGF (from d4-d12), and LDN/FGF (from d4-d12)+CHIR (from d8-d12). From days 22-55, skin organoids formed in LDN/FGF and LDN/FGF/CHIR conditions with or without insulin.
We detached the droplet embedded aggregates from the plate and placed them in a rotating or shaking floating culture in OMM for up to 60 days. By 30-55 days of culture, skin organoids consisted of KRT5^+ basal keratinocytes and PDGFRa^+ dermal fibroblasts (FIGS. 7A-7C). The skin organoids developed as a cyst with an inner layer of epidermis and an outer layer of dermis. We next wondered what mechanism controlled the induction of skin organoids and tested various treatment plans with or without insulin in the CDM during days 0-12 of differentiation (FIGS. 8A-8B). After 12 days, the aggregates were transferred to Matrigel in OMM as previously mentioned. […] Intriguingly, without insulin, the skin organoids were 2.5-3.5 times larger on average than insulin treated aggregates. We chose to continue our analysis with FGF/LDN and FGF/LDN/CHIR (without insulin) treated aggregates.

hPSC-derived aggregates [5] = test: Mesoderm induction (Brachyury immunohistochemistry) in hPSC aggregates
Protocol: Representative Brachyury (BRA) immunohistochemistry in day 4 aggregates treated with 10 ng/ml BMP4 (a), 10 μM SB (b), and 10 μM SB+2.5 ng/ml BMP4 (c) on day 0. Scale bars, 50 μm.
With human PSCs, TGFβ inhibition and endogenous BMP signaling promotes formation of TFAP2+ ECAD+ surface ectoderm by 3-6 days of differentiation.

NC(=O)c1ccc(-c2nc(-c3ccc4c(c3)OCO4)c(-c3ccccn3)[nH]2)cc1 [SB, SB-431542]
aggregates generating a 3D spheroid comprising TFAP2+KRT5+ keratinocytes [1]: 100%

Cc1c[nH]c(-c2cnc(NCCNc3ccc(C#N)cn3)nc2-c2ccc(Cl)cc2Cl)n1 [CHIR99021]
organoids producing pigmented hair follicles [2]: 75%

c1ccc2c(-c3cnn4cc(-c5ccc(N6CCNCC6)cc5)cnc34)ccnc2c1 [LDN, LDN-193189]
structures formed by aggregates (hPSC-derived aggregates [3]): primarily formed keratinocyte cyts

insulin: insulin component of the chemically-defined differentiation medium (CDM)
size (long-axis diameter) of skin organoids in insulin-free conditions relative to conditions with insulin [4]: 2.5-3.5 times

B1: bone morphogenetic protein-4 (protein, UniProt P12644 293-408, looked up)
Bone morphogenetic protein 4: SPKHHSQRARKKNKNCRRHSLYVDFSDVGWNDWIVAPPGYQAFYCHGDCPFPLADHLNSTNHAIVQTLVNSVNSSIPKACCVPTELSAISMLYLDEYDKVVLKNYQEMVVEGCGCR
notes: agonist of BMP signaling
induction of mesodermal (BRA+) cells (hPSC-derived aggregates [5]; BMP treatment alone): mesoderm is induced
induction of mesodermal (Brachyury+) cells (hPSC-derived aggregates [5]; low concentration of BMP-4 during non-neural ectoderm induction): not induced
